The results in this text go back to ChEMBL document CHEMBL1201862, “PubChem BioAssay data set” (2004).

Some test systems named below: SK-MEL-2; NCI-H522; UACC-257; KM12; SW-620; HT-29; OVCAR-3; COLO 205; OVCAR-8; TK-10; T47D; MOLT-4; K562; HOP-62; SF-539; PC-3; Hs-578T; HOP-92; HCT-116; HCT-15.
Common to all, as to experiment: NCI anticancer screen, dose series, 48 h

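Five concentrations, 48 hours, 96-well plates. Here, GI50 denotes the concentration required for 50% inhibition of growth.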 Calls of active or inactive are those of the source. Rule as the data show it: active = GI50 up to about 1.1 µM and inactive = higher.

For the molecule `COc1cc(/C=C2\N=C(c3ccccc3)N(c3nc4c(OC)ccc(OC)c4s3)C2=O)ccc1O`, the GI50 in the assay on SK-MEL-2 is 35.5 µM (inactive); in the assay with NCI-H522 it was 31.1 µM (inactive); in the assay on UACC-257, 38 µM (inactive); in the assay with KM12, 51.2 µM (inactive); with SW-620, 42.2 µM (inactive); with HT-29, > 100 µM (inactive). Further, the GI50 in the assay with OVCAR-3 is 37.1 µM (inactive); in the assay on COLO 205 it was 96.8 µM (inactive); in the assay with OVCAR-8 it was 30.8 µM (inactive); in the assay with TK-10 it was 58.1 µM (inactive); in the assay on T47D it was 5.47 µM (inactive); with MOLT-4, 16.7 µM (inactive). Moreover, the GI50 was 18.1 µM (inactive) with K562; 90.8 µM (inactive) in the assay with HOP-62; 57.9 µM (inactive) with SF-539; 32.4 µM (inactive) in the assay on PC-3; 48.8 µM (inactive) in the assay with Hs-578T; 35.6 µM (inactive) with HOP-92. For the same molecule, the results for the GI50 in the assay with HCT-116 and in the assay on HCT-15 were 95.9 µM (inactive) and 70.1 µM, respectively.

Consider `COc1cc(CC(C)C(C)Cc2ccc(O)c(OC)c2)ccc1O` (stereo not given) [DIHYDROGUAIARETIC ACID], for which the GI50 with SK-MEL-2 was 9.68 µM (inactive); with NCI-H522, 9.86 µM (inactive); in the assay with UACC-257, 15.8 µM (inactive); with KM12, 14.7 µM (inactive); in the assay on SW-620, 18.2 µM (inactive); with HT-29, 22.5 µM (inactive). The GI50 in the assay with OVCAR-3 was 16 µM (inactive); in the assay on COLO 205, > 50 µM (inactive); in the assay with OVCAR-8, 15.6 µM (inactive); in the assay on TK-10, 34 µM (inactive); in the assay on T47D it was 16.3 µM (inactive); in the assay on MOLT-4, 9.29 µM (inactive). The GI50 is 15 µM (inactive) in the assay on K562; 23.9 µM (inactive) with HOP-62; 31.8 µM (inactive) in the assay with SF-539; 10.8 µM (inactive) in the assay with PC-3; 8.15 µM (inactive) in the assay with Hs-578T; 11.7 µM (inactive) in the assay on HOP-92. The GI50 was 17.4 µM (inactive) with HCT-116 and 20 µM in the assay on HCT-15.

As to `O=C(CC(=O)N1N=C(c2ccccc2)C(/N=N/c2ccc(S(=O)(=O)CCOS(=O)(=O)O)cc2)C1=O)Nc1ccc(Cl)cc1` (stereo not given), the GI50 in the assay with SK-MEL-2 was > 100 µM (inactive); with NCI-H522, 30.9 µM (inactive); with UACC-257, > 100 µM (inactive); in the assay on KM12, 21.7 µM (inactive); in the assay on SW-620, > 10 µM (inactive); with HT-29, > 100 µM (inactive). Besides, the GI50 in the assay with OVCAR-3 was > 100 µM (inactive); with COLO 205, > 100 µM (inactive); with OVCAR-8 it was > 100 µM (inactive); with TK-10, > 100 µM (inactive); with T47D it was > 100 µM (inactive); in the assay on MOLT-4, 79.3 µM (inactive). Further, the GI50 was 7.5 µM (inactive) with K562; > 100 µM (inactive) in the assay on HOP-62; > 100 µM (inactive) with SF-539; > 100 µM (inactive) in the assay on PC-3; 20.6 µM (inactive) with Hs-578T; > 100 µM (inactive) in the assay with HOP-92. The GI50 in the assay on HCT-116 is 85.9 µM (inactive); in the assay on HCT-15, 8.61 µM.

For the molecule `OC(CC(CC(O)(C(F)(F)F)C(F)(F)F)=NN=C(CC(O)(C(F)(F)F)C(F)(F)F)CC(O)(C(F)(F)F)C(F)(F)F)(C(F)(F)F)C(F)(F)F`, the GI50 in the assay with SK-MEL-2, in the assay with NCI-H522, in the assay on UACC-257, in the assay on KM12, with SW-620 and with HT-29 was > 10 µM (inactive) throughout. Besides, the GI50 in the assay on OVCAR-3, in the assay on COLO 205, in the assay on OVCAR-8, in the assay with TK-10, with T47D and in the assay with MOLT-4 was > 10 µM (inactive) throughout. In addition, the GI50 in the assay on K562, in the assay on HOP-62, in the assay on SF-539, with PC-3, in the assay on Hs-578T and with HOP-92 was > 10 µM (inactive) in each case. Besides, the GI50 in the assay with HCT-116 was > 10 µM (inactive); in the assay on HCT-15, > 10 µM.

Take `COc1cc2cc(C(=O)N3CC(CCl)c4ccc(N(C)C)cc43)[nH]c2c(OC)c1OC` (stereo not given): the GI50 in the assay on SK-MEL-2 was 0.063 µM (active); with NCI-H522 it was 0.0127 µM (active); with UACC-257, 0.139 µM (active); with KM12 it was 0.127 µM (active); in the assay with SW-620, 0.12 µM (active); in the assay on HT-29 it was 0.0817 µM (active). The GI50 in the assay with OVCAR-3 is 0.0959 µM (active); in the assay on COLO 205, 0.0851 µM (active); in the assay with OVCAR-8 it was 0.0989 µM (active); in the assay on TK-10, 0.13 µM (active); with T47D it was 0.078 µM (active); in the assay on MOLT-4 it was 0.048 µM (active). Moreover, the GI50 was 0.0675 µM (active) in the assay with K562; 0.128 µM (active) in the assay with HOP-62; 0.0559 µM (active) in the assay on SF-539; 0.0676 µM (active) in the assay with PC-3; 0.294 µM (active) in the assay with Hs-578T; 0.0861 µM (active) in the assay with HOP-92. In addition, the GI50 in the assay on HCT-116 is 0.0542 µM (active); in the assay with HCT-15 it was 0.145 µM.

Regarding `CC(=O)Nc1ccc2cc3[nH]c4cc(NC(C)=O)ccc4c3nc2c1`, the GI50 is > 100 µM (inactive) in the assay on SK-MEL-2; > 100 µM (inactive) in the assay on NCI-H522; > 100 µM (inactive) in the assay with UACC-257; 21.7 µM (inactive) in the assay on KM12; > 100 µM (inactive) in the assay on SW-620; > 100 µM (inactive) with HT-29. Also, the GI50 in the assay on OVCAR-3 is > 100 µM (inactive); in the assay with COLO 205, > 100 µM (inactive); with OVCAR-8, > 100 µM (inactive); in the assay with TK-10, > 100 µM (inactive); with T47D it was 31.3 µM (inactive); with MOLT-4 it was 24.9 µM (inactive). The GI50 with K562 is 77.1 µM (inactive); in the assay on HOP-62 it was > 100 µM (inactive); with SF-539 it was > 100 µM (inactive); in the assay on PC-3, > 100 µM (inactive); in the assay on Hs-578T, > 100 µM (inactive); in the assay with HOP-92 it was > 100 µM (inactive). Further, the GI50 in the assay with HCT-116 was > 100 µM (inactive); in the assay on HCT-15, > 100 µM.

Turning to `CCOC(=O)CN1C(=O)NC(C)(c2ccccc2)C1=O` (stereo not given), the GI50 in the assay on SK-MEL-2, with NCI-H522, in the assay with UACC-257, with KM12, in the assay with SW-620 and in the assay with HT-29 was > 100 µM (inactive) throughout. Moreover, the GI50 in the assay with OVCAR-3, in the assay with COLO 205, with OVCAR-8, in the assay on TK-10, in the assay on T47D and with MOLT-4 was > 100 µM (inactive) each time. Moreover, the GI50 in the assay with K562, in the assay with HOP-62, in the assay with SF-539, in the assay with PC-3, with Hs-578T and in the assay with HOP-92 was > 100 µM (inactive) in each case. In addition, the GI50 is > 100 µM (inactive) with HCT-116 and > 100 µM with HCT-15.
